Measured values published in ChEMBL document CHEMBL5360559, “Machine learning- and structure-based discovery of a novel chemotype as FXR agonists for potential treatment of nonalcoholic fatty liver disease” (Eur J Med Chem, 2023).

Legend:
HepG2 [1] = experiment: Induction of dyslipidemia in human HepG2 cells assessed as downregulation of ApoA1 gene expression at 10 uM by qPCR analysis; assay type: toxicity, cell-based; conditions: hepg2, 10 µM
HepG2 [2] = experiment: Induction of dyslipidemia in human HepG2 cells assessed as downregulation of ApoC3 gene expression at 10 uM by qPCR analysis; assay type: toxicity, cell-based; conditions: hepg2, 10 µM

CC[C@H]1[C@@H](O)[C@@H]2[C@H](CC[C@]3(C)[C@@H]([C@H](C)CCC(=O)O)CC[C@@H]23)[C@@]2(C)CC[C@@H](O)C[C@@H]12 [OBETICHOLIC ACID] was tested, and the Activity (HepG2 [1]) was “Toxic” and the Activity (HepG2 [2]) was “Toxic”.
